Values of other authors as cited in US20170298446A1, “BIOMARKERS OF BRUTON TYROSINE KINASE INHIBITOR RESISTANCE” (OHIO STATE INNOVATION FOUNDATION, priority 2014, published 2017).

Biological target: BTK (Homo sapiens, UniProt Q06187)
Sequence (Q06187 whole entry): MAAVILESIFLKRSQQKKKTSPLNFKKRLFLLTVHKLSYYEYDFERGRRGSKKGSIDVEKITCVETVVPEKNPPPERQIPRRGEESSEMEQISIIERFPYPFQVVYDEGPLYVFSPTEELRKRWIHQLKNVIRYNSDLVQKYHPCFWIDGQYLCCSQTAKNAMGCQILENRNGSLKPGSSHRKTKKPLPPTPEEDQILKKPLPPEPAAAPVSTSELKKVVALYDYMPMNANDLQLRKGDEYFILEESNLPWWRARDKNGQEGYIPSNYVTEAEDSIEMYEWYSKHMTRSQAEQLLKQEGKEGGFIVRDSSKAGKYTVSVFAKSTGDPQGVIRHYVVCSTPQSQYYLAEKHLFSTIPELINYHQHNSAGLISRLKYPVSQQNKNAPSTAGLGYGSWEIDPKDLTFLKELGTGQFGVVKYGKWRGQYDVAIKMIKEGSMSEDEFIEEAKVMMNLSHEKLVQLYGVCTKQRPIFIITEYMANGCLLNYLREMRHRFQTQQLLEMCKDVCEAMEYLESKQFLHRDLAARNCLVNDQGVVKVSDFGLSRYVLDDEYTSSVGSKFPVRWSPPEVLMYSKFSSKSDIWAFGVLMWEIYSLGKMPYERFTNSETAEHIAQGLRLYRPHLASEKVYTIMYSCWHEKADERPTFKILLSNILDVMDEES

## CC(C)(C)c1ccc(C(=O)Nc2cccc(-c3cn4ccnc4c(Nc4ccccc4)n3)c2)cc1 [CGI-560, 4-(tert-butyl)-N-(3-(8-(phenylamino)imidazo[1,2-a]pyrazin-6-yl)phenyl)benzamide]
  selectivity for BTK: > 10 fold
